Results on four compounds are retold here after patent US9023789B2, “Amylin analogs and pharmaceutical compositions thereof” (Novo Nordisk A/S, priority 2012, dated 2015).

pIC50: −log10 of the molar value. ≈ marks a conversion by molar mass, not a printed value. Where two headings read alike, the source gives them in different places. Numbered stars: 1 amine (or outer) side, 2 acyl side, 3 side chain; on linkers, the order of the positions; unused ones are H or OH. Bridge positions count the residues as written; N and C are the ends. Side chains are listed from the residue outwards. Peptide text beside a SMILES is read from it. * marks the point of attachment. C20 diacid = O=C(O)CCCCCCCCCCCCCCCCCCC(=O)*; γGlu = O=C(O)[C@H](CCC(=O)[*:2])N[*:1]

Series [1] can be described thus: ASSAY (III) ThT fibrillation assay for physical stability. It counts as physicochemical. The method, boiled down:
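Physical stability scored by ThT fluorescence (444 nm excitation, 485 nm emission) tracked every 20 min during 37 °C incubation with 960 rpm shaking, ThT at 1 μM final. Values are replicate means with SD at chosen times; HPLC against pramlintide standard gives initial and post-assay soluble concentrations.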

Series [2] in a line: ASSAY (IV) determination of solubility. It counts as physicochemical. In short, it runs like this:
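Solubility measured by UPLC of supernatant after centrifugation, following 18 h at room temperature. Peptide ([…] in water) was diluted 1:1 into 100 mM glycylglycine (pH 3.0, 4.0, 5.0) or bistrispropane (pH 6.0-8.0).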

For series [3], the target named is T1, rat amylin receptor (rat calcitonin receptor + rat RAMP 3) (Rattus norvegicus, UniProt P32214+Q9JJ73).
T1 construct: expressed in transfected cells; host or cells: BHK tk'ts 13 (transient, FuGENE 6), membranes
T1 sequence (P32214 25-479 isoform P32214-2 limits assumed): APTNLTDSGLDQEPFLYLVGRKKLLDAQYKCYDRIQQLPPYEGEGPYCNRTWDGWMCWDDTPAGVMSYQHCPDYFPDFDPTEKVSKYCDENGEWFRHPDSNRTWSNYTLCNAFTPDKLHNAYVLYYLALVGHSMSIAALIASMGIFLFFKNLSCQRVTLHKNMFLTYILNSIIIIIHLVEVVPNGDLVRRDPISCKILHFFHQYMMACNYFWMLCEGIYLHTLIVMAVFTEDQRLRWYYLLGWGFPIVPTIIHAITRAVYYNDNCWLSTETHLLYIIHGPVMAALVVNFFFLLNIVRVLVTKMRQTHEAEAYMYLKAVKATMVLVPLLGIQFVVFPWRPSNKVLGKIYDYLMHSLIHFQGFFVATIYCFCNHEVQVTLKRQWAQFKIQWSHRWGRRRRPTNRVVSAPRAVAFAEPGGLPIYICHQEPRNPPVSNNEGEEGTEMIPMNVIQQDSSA
T1 sequence (Q9JJ73 23-147 partner): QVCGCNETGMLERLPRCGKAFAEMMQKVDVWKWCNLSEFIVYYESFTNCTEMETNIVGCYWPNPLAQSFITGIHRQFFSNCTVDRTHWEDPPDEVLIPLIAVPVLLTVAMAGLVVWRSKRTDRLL
Kind of series: ASSAY (VI) binding to the rat amylin receptor. The following applies: for pIC50: binding to rat amylin receptor, read-out: rAmylin-R bind IC50. In short, it runs like this:
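Membranes for this rat amylin receptor binding assay came from BHK tk′ts 13 cells. The cells were transiently transfected with rat calcitonin receptor using the FuGENE® 6 reagent from Roche, as the manufacturer recommends. The cells were collected approximately 48 hours after transfection, and membranes were then prepared.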

The mark [4] stands for this setting: bistrispropane buffer, pH 6.5, read-out: Solubility pH 6.5 Concentration.
Setting [5] is: bistrispropane buffer, pH 7.5, read-out: Solubility pH 7.5 Concentration.
Setting [6] is: bistrispropane buffer, pH 6.0, read-out: Solubility pH 6.0 Concentration.
The mark [7] stands for this setting: bistrispropane buffer, pH 7.0, read-out: Solubility pH 7.0 Concentration.
Where [8] appears, read: bistrispropane buffer, pH 8.0, read-out: Solubility pH 8.0 Concentration.
Where [9] appears, read: glycylglycine buffer, pH 3.0, read-out: Solubility pH 3.0 Concentration.
The mark [10] stands for this setting: glycylglycine buffer, pH 4.0, read-out: Solubility pH 4.0 Concentration.
The mark [11] stands for this setting: glycylglycine buffer, pH 5.0, read-out: Solubility pH 5.0 Concentration.
[12] abbreviates: Table 7, rat binding selectivity, rCTR IC50 / rAmylin-R IC50.
Setting [13] is: Table 7a (preferred compounds), rat binding selectivity, rCTR IC50 / rAmylin-R IC50.
[14] abbreviates: ratio of rCTR bind IC50 to rAmylin-R bind IC50.

As a reminder, the pIC50 is −log10 of the IC50, conventionally taken in molar units. In the case of `CC[C@H](C)[C@H](NC(=O)[C@H](C)NC(=O)CNC(=O)[C@H](Cc1ccccc1)NC(=O)[C@H](CC(N)=O)NC(=O)[C@@H]1CCCN1C(=O)[C@H](CO)NC(=O)[C@H](CO)NC(=O)[C@H](Cc1c[nH]cn1)NC(=O)[C@H](CCCNC(=N)N)NC(=O)[C@H](CC(C)C)NC(=O)[C@H](Cc1ccccc1)NC(=O)[C@H](CC(N)=O)NC(=O)[C@H](C)NC(=O)[C@H](CC(C)C)NC(=O)[C@H](CCCNC(=N)N)NC(=O)[C@H](CCC(N)=O)NC(=O)[C@@H](NC(=O)[C@H](C)NC(=O)[C@@H]1CSSC[C@H](NC(=O)[C@@H](N)CCCCNC(=O)CC[C@H](NC(=O)CCCCCCCCCCCCCCC(=O)O)C(=O)O)C(=O)N[C@@H](CC(N)=O)C(=O)N[C@@H]([C@@H](C)O)C(=O)N[C@@H](C)C(=O)N[C@@H]([C@@H](C)O)C(=O)N1)[C@@H](C)O)C(=O)N1CCC[C@H]1C(=O)N[C@@H](CO)C(=O)N[C@@H](CO)C(=O)N[C@H](C(=O)N[C@@H](CC(N)=O)C(=O)N[C@H](C(=O)NCC(=O)N[C@@H](Cc1c[nH]cn1)C(=O)N[C@@H](CC(N)=O)C(=O)N[C@H](C(=O)N[C@@H](Cc1ccc(O)cc1)C(N)=O)[C@@H](C)O)C(C)C)[C@@H](C)O` [Example 111], the “ThT pH 4.0 lag time (h)” value in series [1] stood at 10 h. The solubility at 18 h in series [2] (setting [4]) was at least 200 µM; in series [2] (setting [5]), at least 200 µM; in series [2] (setting [6]), at least 200 µM; in series [2] (setting [7]), at least 200 µM; in series [2] (setting [8]), 165 µM (≈ 722 µg/mL); in series [2] (setting [9]) it was at least 200 µM. The solubility at 18 h in series [2] (setting [10]) and in series [2] (setting [11]) was at least 200 µM throughout. Also, in series [3] (Table 7), the pIC50 was 8.91. Moreover, the “Ratio rCT/rAmylin binding” value in series [3] (setting [12]), in series [3] (setting [13]) and in series [3] (setting [14]) was 326.8 each time.

For the compound `CC[C@H](C)[C@H](NC(=O)[C@H](C)NC(=O)CNC(=O)[C@H](Cc1ccccc1)NC(=O)[C@H](CC(N)=O)NC(=O)[C@@H]1CCCN1C(=O)[C@H](CO)NC(=O)[C@H](CO)NC(=O)[C@H](Cc1c[nH]cn1)NC(=O)[C@H](CCCNC(=N)N)NC(=O)[C@H](CC(C)C)NC(=O)[C@H](Cc1ccccc1)NC(=O)[C@H](CC(N)=O)NC(=O)[C@H](C)NC(=O)[C@H](CC(C)C)NC(=O)[C@H](CCCNC(=N)N)NC(=O)[C@H](CCC(N)=O)NC(=O)[C@@H](NC(=O)[C@H](C)NC(=O)[C@@H]1CSSC[C@H](NC(=O)[C@@H](N)CCCCNC(=O)CC[C@H](NC(=O)CCCCCCCCCCCCC(=O)O)C(=O)O)C(=O)N[C@@H](CC(N)=O)C(=O)N[C@@H]([C@@H](C)O)C(=O)N[C@@H](C)C(=O)N[C@@H]([C@@H](C)O)C(=O)N1)[C@@H](C)O)C(=O)N1CCC[C@H]1C(=O)N[C@@H](CO)C(=O)N[C@@H](CO)C(=O)N[C@H](C(=O)N[C@@H](CC(N)=O)C(=O)N[C@H](C(=O)NCC(=O)N[C@@H](Cc1c[nH]cn1)C(=O)N[C@@H](CC(N)=O)C(=O)N[C@H](C(=O)N[C@@H](Cc1ccc(O)cc1)C(N)=O)[C@@H](C)O)C(C)C)[C@@H](C)O` [Example 112], the “ThT pH 4.0 lag time (h)” value in series [1] amounted to 30 h. Moreover, the solubility at 18 h in series [2] (setting [4]), in series [2] (setting [5]), in series [2] (setting [6]), in series [2] (setting [7]), in series [2] (setting [8]) and in series [2] (setting [9]) was at least 200 µM in each case. Further, the solubility at 18 h in series [2] (setting [10]) and in series [2] (setting [11]) was at least 200 µM throughout. Moreover, the pIC50 in series [3] (Table 7) is 8.60. Further, the “Ratio rCT/rAmylin binding” value in series [3] (setting [12]), in series [3] (setting [13]) and in series [3] (setting [14]) was 280.1 each time.

Regarding `CC[C@H](C)[C@H](NC(=O)[C@H](C)NC(=O)CNC(=O)[C@H](Cc1ccccc1)NC(=O)[C@H](CC(N)=O)NC(=O)[C@@H]1CCCN1C(=O)[C@H](CO)NC(=O)[C@H](CO)NC(=O)[C@H](Cc1c[nH]cn1)NC(=O)[C@H](CCCNC(=N)N)NC(=O)[C@H](CC(C)C)NC(=O)[C@H](Cc1ccccc1)NC(=O)[C@H](CC(N)=O)NC(=O)[C@H](C)NC(=O)[C@H](CC(C)C)NC(=O)[C@H](CCCNC(=N)N)NC(=O)[C@H](CCC(N)=O)NC(=O)[C@@H](NC(=O)[C@H](C)NC(=O)[C@@H]1CSSC[C@H](NC(=O)[C@@H](N)CCCCNC(=O)CC[C@H](NC(=O)CCCCCCCCCCCCCCCCC(=O)O)C(=O)O)C(=O)N[C@@H](CC(N)=O)C(=O)N[C@@H]([C@@H](C)O)C(=O)N[C@@H](C)C(=O)N[C@@H]([C@@H](C)O)C(=O)N1)[C@@H](C)O)C(=O)N1CCC[C@H]1C(=O)N[C@@H](CO)C(=O)N[C@@H](CO)C(=O)N[C@H](C(=O)N[C@@H](CC(N)=O)C(=O)N[C@H](C(=O)NCC(=O)N[C@@H](Cc1c[nH]cn1)C(=O)N[C@@H](CC(N)=O)C(=O)N[C@H](C(=O)N[C@@H](Cc1ccc(O)cc1)C(N)=O)[C@@H](C)O)C(C)C)[C@@H](C)O` [Example 113], the “ThT pH 4.0 lag time (h)” value in series [1] came out at 45 h. For the same compound, the solubility at 18 h was at least 200 µM in series [2] (setting [4]); 154 µM (≈ 678 µg/mL) in series [2] (setting [5]); at least 200 µM in series [2] (setting [6]); 96 µM (≈ 423 µg/mL) in series [2] (setting [8]); at least 200 µM in series [2] (setting [9]); at least 200 µM in series [2] (setting [10]). Besides, in series [2] (setting [11]), the solubility at 18 h was at least 200 µM. Further, in series [3] (Table 7), the pIC50 is 8.93. Besides, the “Ratio rCT/rAmylin binding” value in series [3] (setting [12]), in series [3] (setting [13]) and in series [3] (setting [14]) was 40.3 throughout.

Take `CC[C@H](C)[C@H](NC(=O)[C@H](C)NC(=O)CNC(=O)[C@H](Cc1ccccc1)NC(=O)[C@H](CC(N)=O)NC(=O)[C@@H]1CCCN1C(=O)[C@H](CO)NC(=O)[C@H](CO)NC(=O)[C@H](Cc1c[nH]cn1)NC(=O)[C@H](CCCNC(=N)N)NC(=O)[C@H](CC(C)C)NC(=O)[C@H](Cc1ccccc1)NC(=O)[C@H](CCC(=O)O)NC(=O)[C@H](C)NC(=O)[C@H](CC(C)C)NC(=O)[C@H](CCCNC(=N)N)NC(=O)[C@H](CCC(N)=O)NC(=O)[C@@H](NC(=O)[C@H](C)NC(=O)[C@@H]1CSSC[C@H](NC(=O)[C@@H](N)CCCCNC(=O)CC[C@H](NC(=O)CCCCCCCCCCCCCCCCCCC(=O)O)C(=O)O)C(=O)N[C@@H](CC(N)=O)C(=O)N[C@@H]([C@@H](C)O)C(=O)N[C@@H](C)C(=O)N[C@@H]([C@@H](C)O)C(=O)N1)[C@@H](C)O)C(=O)N1CCC[C@H]1C(=O)N[C@@H](CO)C(=O)N[C@@H](CO)C(=O)N[C@H](C(=O)N[C@@H](CC(N)=O)C(=O)N[C@H](C(=O)NCC(=O)N1CCC[C@H]1C(=O)N[C@@H](CC(N)=O)C(=O)N[C@H](C(=O)N1CCC[C@H]1C(N)=O)[C@@H](C)O)C(C)C)[C@@H](C)O` [Example 114] (H-K([γGlu-C20 diacid])CNTATCATQRLAEFLRHSSPNFGAIPSSTNVGPNTP-NH2; disulfide 2-7 (inferred); N-terminus assumed): the “ThT pH 4.0 lag time (h)” value in series [1] was 45 h. For the same compound, the solubility at 18 h in series [2] (setting [4]), in series [2] (setting [5]), in series [2] (setting [6]), in series [2] (setting [7]), in series [2] (setting [8]) and in series [2] (setting [9]) was at least 200 µM throughout. In addition, the solubility at 18 h in series [2] (setting [10]) and in series [2] (setting [11]) was at least 200 µM throughout. The “Ratio rCT/rAmylin binding” value in series [3] (setting [12]) is 1.1.
